From publication PMC10992382, “Discovery of a readily heterologously expressed Rubisco from the deep sea with potential for CO2 capture” (Bioresources and Bioprocessing, 2021)

Target: T1, 7002 Rubisco (Picosynechococcus sp. PCC 7002, UniProt Q44176)
T1 construct: gene cbbL; C-terminal His6 tag on large subunit; large and small subunits co-expressed with chaperone RbcX from pET30a in E. coli BL21(DE3); hexadecamer; with Ribulose bisphosphate carboxylase small subunit
Assay: […]-CABP active-site binding assay
Conditions: labelled compound; active-site titration only

T1 sequence (Q44176 whole entry): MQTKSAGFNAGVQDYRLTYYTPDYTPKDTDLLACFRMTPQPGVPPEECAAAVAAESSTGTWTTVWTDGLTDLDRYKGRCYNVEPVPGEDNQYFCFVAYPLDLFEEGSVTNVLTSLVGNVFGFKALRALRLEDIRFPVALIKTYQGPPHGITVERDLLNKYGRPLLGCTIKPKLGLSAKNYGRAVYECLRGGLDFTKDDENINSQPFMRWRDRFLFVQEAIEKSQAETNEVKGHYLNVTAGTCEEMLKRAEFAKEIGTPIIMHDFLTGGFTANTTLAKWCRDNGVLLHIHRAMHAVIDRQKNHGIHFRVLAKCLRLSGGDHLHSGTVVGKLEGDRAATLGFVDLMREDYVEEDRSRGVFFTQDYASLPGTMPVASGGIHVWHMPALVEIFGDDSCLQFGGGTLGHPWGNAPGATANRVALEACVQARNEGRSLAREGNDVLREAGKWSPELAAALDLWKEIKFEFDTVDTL
T1 sequence (Q44178 whole entry, further chain): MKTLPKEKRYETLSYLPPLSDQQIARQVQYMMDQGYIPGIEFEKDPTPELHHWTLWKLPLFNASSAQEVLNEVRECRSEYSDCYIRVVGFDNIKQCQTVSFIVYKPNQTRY

O=C(O)[C@@](O)(COP(=O)(O)O)[C@H](O)[C@H](O)COP(=O)(O)O [CABP, 2-carboxyarabinitol-1,5-diphosphate]
14C-CABP active-site binding assay: Active sites of Rubisco in purified enzymes were determined as reported
